We go through 17 compounds from PMC2797373 (Bioorganic & medicinal chemistry, 2009).

The structures appear in SMILES notation.

One assay concerns the target human A2AAR (Homo sapiens, UniProt P29274). Put plainly: Radioligand binding at human A2AAR expressed in CHO cells. Particulars: read-out: % inhibition at 1 µM (hA2AAR).
The conditions of assay [1]: cited from earlier work.
The conditions of assay [2]: cited from earlier work. This is another data set of the same source.
Assay [3] addresses T1, human A3 adenosine receptor (Homo sapiens, UniProt P0DMS8).
T1 sequence (P0DMS8 1-318): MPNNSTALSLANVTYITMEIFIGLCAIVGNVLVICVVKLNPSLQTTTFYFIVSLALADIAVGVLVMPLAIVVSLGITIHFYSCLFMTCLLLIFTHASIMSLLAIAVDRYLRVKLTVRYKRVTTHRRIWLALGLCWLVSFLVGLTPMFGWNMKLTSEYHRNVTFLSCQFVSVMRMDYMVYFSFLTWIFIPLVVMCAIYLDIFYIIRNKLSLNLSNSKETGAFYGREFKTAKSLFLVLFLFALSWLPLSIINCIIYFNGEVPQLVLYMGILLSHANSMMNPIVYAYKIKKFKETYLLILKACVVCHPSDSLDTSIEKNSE
It is filed as cell-based. To be noted: transfected CHO cells.

Broadly, the inhibition is the relative decrease from the control value, in per cent.

Chain of human A2AAR (P29274 whole entry): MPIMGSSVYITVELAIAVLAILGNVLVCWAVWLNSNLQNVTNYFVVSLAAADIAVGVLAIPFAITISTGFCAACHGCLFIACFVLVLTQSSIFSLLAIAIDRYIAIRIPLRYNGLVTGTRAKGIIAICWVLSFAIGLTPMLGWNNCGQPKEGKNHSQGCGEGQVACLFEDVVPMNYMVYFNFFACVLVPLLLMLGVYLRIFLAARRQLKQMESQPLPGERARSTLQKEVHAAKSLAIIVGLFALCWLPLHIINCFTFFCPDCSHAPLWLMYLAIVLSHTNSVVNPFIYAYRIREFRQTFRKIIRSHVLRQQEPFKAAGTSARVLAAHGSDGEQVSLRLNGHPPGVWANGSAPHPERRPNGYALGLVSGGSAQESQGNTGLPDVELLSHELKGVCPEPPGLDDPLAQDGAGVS

For `CNC(=O)[C@H]1S[C@@H](n2cnc3c(NC)ncnc32)[C@H](O)[C@@H]1O` [Compound 5a, N^6-Methyl-9-(5’-methylaminocarbonyl-4’-thio-β-D-ribofuranosyl)adenine], the inhibition at 1 µM at human A2AAR was found to be 35 ± 8%.
Still for that read-out and setting: in the case of `CNc1ncnc2c1ncn2[C@@H]1S[C@H](C(=O)NCc2cccc(I)c2)[C@@H](O)[C@H]1O` [Compound 5g, 9-[(5’-(3-Iodo-benzylaminocarbonyl)-4’-thio-β-D-ribofuranosyl)]-N^6-methyladenine] it was 27 ± 10%.
With `CNC(=O)[C@H]1S[C@@H](n2cnc3c(NCc4cccc(I)c4)nc(Cl)nc32)[C@H](O)[C@@H]1O` [Compound 3, thio-Cl-IB-MECA], the “In vitro anticancer activity” value in assay [1] is “potent”. The “In vivo anticancer activity” value in assay [2] is given as “potent”.
On to `O=C(NCc1cccc(F)c1)[C@H]1S[C@@H](n2cnc3c(NCc4cccc(I)c4)ncnc32)[C@H](O)[C@@H]1O` [Compound 5n, 9-[5’-(3-Fluoro-benzylaminocarbonyl-4’-thio-β-D-ribofuranosyl)]-N^6-(3-iodobenzyl)adenine], for which the inhibition at 1 µM at human A2AAR turned out to be 35 ± 8%.
For the compound `CNC(=O)[C@H]1S[C@@H](n2cnc3c(NCc4cccc(I)c4)ncnc32)[C@H](O)[C@@H]1O` [Compound 5h, N^6-(3-Iodo-benzyl)-9-(5’-methylaminocarbonyl-4’-thio-β-D-ribofuranosyl)adenine], the “Agonist efficacy at human A3AR (inhibition of cyclic AMP)” value in assay [3] was “full agonist”.
On to `Cc1ccc(CNC(=O)[C@H]2S[C@@H](n3cnc4c(NCc5cccc(I)c5)ncnc43)[C@H](O)[C@@H]2O)cc1` [Compound 5r, N^6-(3-Iodo-benzyl)-9-[5’-(4-methyl-benzylaminocarbonyl-4’-thio-β-D-ribofuranosyl)]adenine], for which the inhibition at 1 µM at human A2AAR was found to be 37%.
The same measure, in the same setting: in the case of `CNC(=O)[C@H]1S[C@@H](n2cnc3c(NC)nc(Cl)nc32)[C@H](O)[C@@H]1O` [Compound 4, reference compound] it was 20%; in that of `CNc1ncnc2c1ncn2[C@@H]1S[C@H](C(=O)NC2CCCC2)[C@@H](O)[C@H]1O` [Compound 5f, 9-(5’-Cyclopentylaminocarbonyl-4’-thio-β-D-ribofuranosyl)-N^6-methyladenine], 45 ± 1%; in that of `O=C(NCc1cccc(Cl)c1)[C@H]1S[C@@H](n2cnc3c(NCc4cccc(I)c4)ncnc32)[C@H](O)[C@@H]1O` [Compound 5o, 9-[5’-(3-Chloro-benzylaminocarbonyl-4’-thio-β-D-ribofuranosyl)]-N^6-(3-iodobenzyl)adenine], 44 ± 1%.
Still for that read-out and setting: in the case of `O=C(NC1CCCCC1)[C@H]1S[C@@H](n2cnc3c(NCc4cccc(I)c4)ncnc32)[C@H](O)[C@@H]1O` [Compound 5m, 9-(5’-Cyclohexylaminocarbonyl-4’-thio-β-D-ribofuranosyl)-N^6-(3-iodobenzyl)adenine] it was 24 ± 7%; in that of `COc1ccccc1CNC(=O)[C@H]1S[C@@H](n2cnc3c(NCc4cccc(I)c4)ncnc32)[C@H](O)[C@@H]1O` [Compound 5s, N^6-(3-Iodo-benzyl)-9-[5’-(2-methoxy-benzylaminocarbonyl-4’-thio-β-D-ribofuranosyl)]adenine], 28 ± 9%; in that of `CCOc1ccccc1CNC(=O)[C@H]1S[C@@H](n2cnc3c(NCc4cccc(I)c4)ncnc32)[C@H](O)[C@@H]1O` [Compound 5t, 9-[5’-(2-Ethoxy-benzylaminocarbonyl-4’-thio-β-D-ribofuranosyl)]-N^6-(3-iodobenzyl)adenine], 23 ± 8%.
Turning to `O=C(NCCc1ccccc1)[C@H]1S[C@@H](n2cnc3c(NCc4cccc(I)c4)ncnc32)[C@H](O)[C@@H]1O` [Compound 5v, N^6-(3-Iodo-benzyl)-9-[5’-(2-phenetylaminocarbonyl-4’-thio-β-D-ribofuranosyl)]adenine], the inhibition at 1 µM at human A2AAR was found to be 11%.
The same measure, in the same setting: in the case of `Cc1cccc(CNC(=O)[C@H]2S[C@@H](n3cnc4c(NCc5cccc(I)c5)ncnc43)[C@H](O)[C@@H]2O)c1` [Compound 5q, N^6-(3-Iodo-benzyl)-9-[5’-(3-methyl-benzylaminocarbonyl-4’-thio-β-D-ribofuranosyl)]adenine] it was 31 ± 1%; in that of `Cc1ccccc1CNC(=O)[C@H]1S[C@@H](n2cnc3c(NCc4cccc(I)c4)ncnc32)[C@H](O)[C@@H]1O` [Compound 5p, N^6-(3-Iodo-benzyl)-9-[5’-(2-methyl-benzylaminocarbonyl-4’-thio-β-D-ribofuranosyl)]adenine], 26 ± 10%; in that of `CNc1ncnc2c1ncn2[C@@H]1S[C@H](C(=O)NCC2CC2)[C@@H](O)[C@H]1O` [Compound 5d, 9-(5’-Cyclopropylmethylaminocarbonyl-4’-thio-β-D-ribofuranosyl)-N^6-methyladenine], 38 ± 5%.
Still for that read-out and setting: in the case of `CCNC(=O)[C@H]1S[C@@H](n2cnc3c(NC)ncnc32)[C@H](O)[C@@H]1O` [Compound 5b, 9-(5’-Ethylaminocarbonyl-4’-thio-β-D-ribofuranosyl)-N^6-methyladenine] it was 20%.
